# ChEMBL document CHEMBL4622844, “Inhibition of bacterial growth and galactosyltransferase activity of WbwC by α, ω-bis(3-alkyl-1H-imidazolium)alkane salts: Effect of varying carbon content” (Bioorg Med Chem, 2020)
# Activity calls are given as the source filed them. No cut-off for these calls is given here.
# Legend:
# Pseudomonas aeruginosa = test: Antimicrobial activity against Pseudomonas aeruginosa PAO1 assessed as inhibition of colony formation at 50 uM preincubated for 4 hrs and measured after overnight incubation by CFU assay; assay type: functional
# [1] = Growth inhibition of human OC-3-VGH cells at 1 mM after 24 hrs by MTT assay; assay type: cell-based; details: read-out: GI
# [2] = biological target: T1, Beta-1,4-galactosyltransferase 1 (Bos taurus) (UniProt P08037); test: Inhibition of bovine milk Beta-1,4-galactosyltransferase at 0.5 mM in presence of UDP-[3H]Gal and GlcNAc-beta-Bn after 1 hr by scintillation counting method
# T1 sequence (whole entry): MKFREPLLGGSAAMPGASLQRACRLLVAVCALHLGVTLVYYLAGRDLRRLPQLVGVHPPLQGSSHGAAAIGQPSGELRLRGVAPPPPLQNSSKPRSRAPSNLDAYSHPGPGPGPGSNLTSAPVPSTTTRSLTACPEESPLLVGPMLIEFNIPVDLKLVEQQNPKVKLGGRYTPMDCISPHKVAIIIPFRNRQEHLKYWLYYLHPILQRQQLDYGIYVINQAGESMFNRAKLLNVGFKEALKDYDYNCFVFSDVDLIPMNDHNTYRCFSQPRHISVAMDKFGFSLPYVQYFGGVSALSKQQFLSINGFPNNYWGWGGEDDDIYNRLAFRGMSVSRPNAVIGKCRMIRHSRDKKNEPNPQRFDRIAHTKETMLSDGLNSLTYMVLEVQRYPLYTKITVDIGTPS
# AD293 [3] = test: Growth inhibition of human AD293 cells at 0.5 mM after 24 hrs by MTT assay; assay type: cell-based; details: ad293, 24 h, 500 µM
# A549 [4] = test: Growth inhibition of human A549 cells after 24 hrs by MTT assay; assay type: cell-based; details: a549, 24 h
# [5] = Growth inhibition of human OC-3-VGH cells at 0.5 mM after 24 hrs by MTT assay; assay type: cell-based; details: read-out: GI
# PC-3 [6] = test: Growth inhibition of human PC3 cells after 24 hrs by MTT assay; assay type: cell-based; details: pc-3, 24 h
# OC-3-VGH [7] = test: Growth inhibition of human OC-3-VGH cells after 24 hrs by MTT assay; assay type: cell-based
# OC-3-VGH [8] = test: Inhibition of cell migration in human OC-3-VGH cells at 500 uM incubated for 18 hrs by scratch wound healing assay; assay type: cell-based
# Escherichia coli = test: Inhibition of recombinant Escherichia coli O104:H4 Beta-1,3-galactosyltransferase WbwC expressed in Escherichia coli BL21 at 0.5 mM in presence of UDP-[3H]Gal and GalNAC-PO3-PO3-(CH2)11-O-phenyl after 1 hr by scintillation counting method relative to control
# AD293 [9] = test: Growth inhibition of human AD293 cells after 24 hrs by MTT assay; assay type: cell-based; details: ad293, 24 h
# PC-3 [10] = test: Growth inhibition of human PC3 cells at 0.5 mM after 24 hrs by MTT assay; assay type: cell-based; details: pc-3, 24 h, 500 µM
# A549 [11] = test: Growth inhibition of human A549 cells at 0.5 mM after 24 hrs by MTT assay; assay type: cell-based; details: a549, 24 h, 500 µM
# [12] = Inhibition of recombinant Escherichia coli O104:H4 Beta-1,3-galactosyltransferase WbwC expressed in Escherichia coli BL21 in presence of UDP-[3H]Gal and GalNAC-PO3-PO3-(CH2)11-O-phenyl after 1 hr by scintillation counting method
SMILES,inhibition (Pseudomonas aeruginosa),"inhibition at 24 h, 1000 µM [1]",inhibition [2],growth inhibition (GI) (AD293 [3]),growth inhibition (GI) (A549 [4]),inhibition at 50 µM (Pseudomonas aeruginosa),"inhibition at 24 h, 500 µM [5]",growth inhibition (GI) (PC-3 [6]),IC50 (OC-3-VGH [7]),inhibition (INH) (OC-3-VGH [8]),inhibition (Escherichia coli),growth inhibition (GI) (AD293 [9]),growth inhibition (GI) (PC-3 [10]),growth inhibition (GI) (A549 [11]),IC50 [12]
CCCC(=O)N[C@@H]1[C@@H](O)[C@H](O)[C@@H](CO)O[C@H]1Sc1ccc2ccccc2c1,inactive,50%,inactive,–,–,–,–,–,–,–,–,–,–,–,–
CS(=O)(=O)[O-].CS(=O)(=O)[O-].C[n+]1ccn(CCCCCCCCCCCCCCCCCCCCn2cc[n+](C)c2)c1,–,–,–,Toxic,Toxic,> 90%,80%,Toxic,5 to 12 µM,Active,91%,Toxic,Toxic,Toxic,230 µM
C[n+]1ccn(CCCCCCCCCCCCCCCCCCn2cc[n+](C)c2)c1.[Cl-].[Cl-],–,–,–,Toxic,Toxic,–,80%,Toxic,5 to 12 µM,–,< 1%,Toxic,Toxic,Toxic,–
